Key:
[1] = 7-Day intravenous infusion study in Beagle dogs: toxicokinetic serum analysis; assay type: in vivo
Experimental: This study was conducted to evaluate the toxicokinetic profile of M4N formulated in 30% HP-β-CD and 25% PEG 300 when administered as a single intravenous infusion dose for seven consecutive days in beagle dogs. This study constitutes the first study of this particular formulation of M4N in dogs and was executed to evaluate the toxicity and compare tolerability of a diluted formulation (10 mg/mL versus 5 mg/mL).
A total of twelve beagle dogs (8 male/4 female) were dosed with M4N via a 54-minute (Group 2) or 108-minute (Groups 1, 3 and 4) intravenous infusion. All animals received seven doses, one per day over seven consecutive days.
The following parameters were evaluated: clinical observations and body weights. Test article analysis was performed on Study Days 1 and 7, blood samples (targeting a volume of 2.0 mL) were collected from each animal from an appropriate vessel at the following time points: […]

[2] = Solubility of M4N in formulations containing modified celluloses (visual inspection); assay type: physicochemical; on Dissolution After Rotation: key: N represents 'No'; Y represents 'Yes.'
Experimental: A 10 mL solution of 50% HP-β-CD (w/v) and 0.5% hydroxypropyl methylcellulose (“HPMC”) (w/v) for use as a solubilizing agent and/or excipient was made as follows: 5.9 mL of water suitable for injection into animals (“WFI”) were placed in a glass beaker containing a stir bar. The beaker was placed on a magnetic plate, and the stir bar was set to stir at medium speed. Five grams of HP-β-CD were added slowly to the stirring WFI, using a spatula to direct the HP-β-CD to the center of the beaker. The HP-β-CD solution was stirred for about 24 hr or until the HP-β-CD was dissolved completely upon visual inspection. The resulting solution measured about 9.4 mL. About 0.6 mL of WFI was added to this resulting solution to reach 10 mL, to produce a solution of 50% HP-β-CD (w/v). Fifty milligrams of HPMC were added to the 50% HP-β-CD solution and stirred for about 1 hr or until the HPMC was dissolved upon visual inspection. The final solution was stirred for about 1 hr and was then stored at room temperature, protected from light. This method of making modified cyclodextrins with modified celluloses may be scaled up or down to obtain the desired volume or concentration of HP-β-CD/HPMC solution. Other modified cyclodextrin/modified cellulose solutions may be similarly made, for example, by substituting HP-β-CD with other modified cyclodextrins, or HPMC with other modified celluloses, in the process described above.
A 10 mL solution of M4N at a concentration of about 10 mg/mL in 50% HP-β-CD/0.5% HPMC was made as follows. About 10 mL of the 50% HP-β-CD/0.5% HPMC solution were added to a glass beaker containing a stir bar. The beaker was placed on a magnetic plate and the stir bar was set to stir at medium speed. About 100 mg of M4N were slowly added to the 50% HP-β-CD/0.5% HPMC in the center of the beaker with the aid of a spatula. The M4N/50% HP-β-CD/0.5% HPMC mixture was stirred for 24 hr or until all M4N was uniformly suspended without any clumps being present. The M4N/50% HP-β-CD/0.5% HPMC mixture was heated at about 90° C. for about 30 min. (or longer if a larger volume of solution was desired, for example, 1 hr at 90° C. for 500 mL of the M4N/50% HP-β-CD/0.5% HPMC mixture), or longer as needed to ensure complete dissolution of M4N. […] The final M4N/50% HP-β-CD/0.5% HPMC solution was stored at room temperature and was kept protected from light.
A 10 mL solution of 5% ethylcellulose (“EC”) in ethanol (w/v) for use as a solubilizing agent and/or excipient was made as follows: 10 mL of 100% ethyl alcohol (“EtOH”) were placed in a glass beaker containing a stir bar, covered by a round Teflon® cover. The beaker was placed on a magnetic plate, and the stir bar was set to stir at medium speed. Five hundred (500) milligrams of EC was added slowly to the stirring ethanol, using a spatula to direct the EC to the center of the beaker so as to prevent EC powder from sticking to the beaker wall. The EC solution was stirred for about 2 hr or until the EC was dissolved completely upon visual inspection. The final solution was stored at room temperature, and was protected from light.
A 10 mL solution of M4N at a concentration of about 20 mg/mL in 5% EC (w/v) (the “EC formulation”) was made as follows. About 10 mL of 5% EC formulation, made as described above, were added to a glass beaker containing a stir bar. The beaker was placed on a magnetic plate and the stir bar was set to stir at medium speed, and covered with a round Teflon® cover. About 200 mg of M4N were slowly added to the 5% EC formulation in the center of the beaker with the aid of a spatula to prevent M4N from sticking to the beaker wall. The M4N/EC mixture was stirred for 2 hr or until all M4N had dissolved or was uniformly suspended without any clumps being present. The M4N/EC mixture was heated at about 60° C. for about 30 min. […]

[3] = 50% HP-β-CD, 0.5% HPMC, M4N 1 mg/mL
[4] = 50% HP-β-CD, 0.5% HPMC, M4N 10 mg/mL
[5] = EC 5% (w/v) in EtOH, M4N 1 mg/mL
[6] = EC 5% (w/v) in EtOH, M4N 10 mg/mL
[7] = EC 5% (w/v) in EtOH, M4N 20 mg/mL

SMILES: COc1ccc(C[C@@H](C)[C@@H](C)Cc2ccc(OC)c(OC)c2)cc1OC [Formulation M4N, meso-1,4-bis(3,4-dimethoxyphenyl)-2,3-dimethylbutane]
- peak test article concentration in serum ([1]; Group 2, 45 mg/kg (10 mg/mL), 54-minute IV infusion): 33420 ng/mL
- time of maximum concentration ([1]; Group 2, end of infusion): 0.9 h
- peak test article concentration in serum ([1]; Group 3, 90 mg/kg (10 mg/mL), 108-minute IV infusion): 46704 ng/mL
- peak test article concentration in serum ([1]; Group 4, 45 mg/kg (5 mg/mL), 108-minute IV infusion): 18759 ng/mL
- time of maximum concentration ([1]; Groups 3 and 4, end of infusion): 1.8 h
- Dissolution After Rotation ([2]; 2.3% HPMC, M4N 1 mg/mL): N
- Dissolution After Heating ([2]; 2.3% HPMC, M4N 1 mg/mL, 90° C.): N at 90 °C
- Dissolution After Rotation ([2]; 2.3% HPMC, M4N 10 mg/mL): N
- Dissolution After Heating ([2]; 2.3% HPMC, M4N 10 mg/mL, 90° C.): N at 90 °C
- Dissolution After Rotation ([2]; 2.3% HPMC, M4N 50 mg/mL): N
- Dissolution After Heating ([2]; 2.3% HPMC, M4N 50 mg/mL, 90° C.): N at 90 °C
- Dissolution After Rotation ([2]; 2.3% HPMC, M4N 100 mg/mL): N
- Dissolution After Heating ([2]; 2.3% HPMC, M4N 100 mg/mL, 90° C.): N at 90 °C
- Dissolution After Rotation [2, 3]: N
- Stability Time at Room Temperature [2, 3]: >7 days
- Dissolution After Heating ([2]; 50% HP-β-CD, 0.5% HPMC, M4N 1 mg/mL, 90° C.): Y at 90 °C
- Dissolution After Rotation [2, 4]: N
- Stability Time at Room Temperature [2, 4]: >7 days
- Dissolution After Heating ([2]; 50% HP-β-CD, 0.5% HPMC, M4N 10 mg/mL, 90° C.): Y at 90 °C
- Dissolution After Rotation ([2]; 50% HP-β-CD, 0.5% HPMC, M4N 50 mg/mL): N
- Dissolution After Heating ([2]; 50% HP-β-CD, 0.5% HPMC, M4N 50 mg/mL, 90° C.): N at 90 °C
- Dissolution After Rotation ([2]; CMC (High Viscosity) 1% (w/v), M4N 1 mg/mL): N
- Dissolution After Heating ([2]; CMC (High Viscosity) 1% (w/v), M4N 1 mg/mL, 90° C.): N at 90 °C
- Dissolution After Rotation ([2]; CMC (High Viscosity) 1% (w/v), M4N 10 mg/mL): N
- Dissolution After Heating ([2]; CMC (High Viscosity) 1% (w/v), M4N 10 mg/mL, 90° C.): N at 90 °C
- Dissolution After Rotation ([2]; CMC (Low Viscosity) 4%, M4N 1 mg/mL): N
- Dissolution After Heating ([2]; CMC (Low Viscosity) 4%, M4N 1 mg/mL, 90° C.): N at 90 °C
- Dissolution After Rotation ([2]; CMC (Low Viscosity) 4%, M4N 10 mg/mL): N
- Dissolution After Heating ([2]; CMC (Low Viscosity) 4%, M4N 10 mg/mL, 90° C.): N at 90 °C
- Dissolution After Rotation [2, 5]: Y
- Stability Time at Room Temperature [2, 5]: >3 days
- Dissolution After Rotation [2, 6]: N
- Stability Time at Room Temperature [2, 6]: >3 days
- Dissolution After Heating ([2]; EC 5% (w/v) in EtOH, M4N 10 mg/mL, 40° C.): Y at 40 °C
- Dissolution After Rotation [2, 7]: N
- Stability Time at Room Temperature [2, 7]: >3 days
- Dissolution After Heating ([2]; EC 5% (w/v) in EtOH, M4N 20 mg/mL, 60° C.): Y at 60 °C
- Dissolution After Rotation ([2]; EC 5% (w/v) in EtOH, M4N 30 mg/mL): N
- Dissolution After Heating ([2]; EC 5% (w/v) in EtOH, M4N 30 mg/mL, 60° C.): Y at 60 °C
- Dissolution After Rotation ([2]; EC 5% (w/v) in EtOH, M4N 50 mg/mL): N
- Dissolution After Heating ([2]; EC 5% (w/v) in EtOH, M4N 50 mg/mL, 90° C.): Y at 90 °C
- Dissolution After Rotation ([2]; EC 5% (w/v) in EtOH, M4N 100 mg/mL): N
- Dissolution After Heating ([2]; EC 5% (w/v) in EtOH, M4N 100 mg/mL, 90° C.): Y at 90 °C
- Stability at Room Temperature ([2]; M4N 1 mg/mL and 10 mg/mL in 50% HP-β-CD/0.5% HPMC, heated at 90° C., after cool down): greater than 7 days
- stable at room temperature ([2]; M4N 1 mg/mL in EC formulation (5% EC in EtOH), without heat): greater than 3 days
- stable at room temperature ([2]; M4N 10 mg/mL in EC formulation, dissolved at 40° C.): greater than 3 days
- stable at room temperature ([2]; M4N 20 mg/mL in EC formulation, dissolved at 60° C.): greater than 3 days
- solution upon cooling ([2]; M4N 30 mg/mL in EC formulation, soluble at 60° C.): did not remain in solution upon cooling
- dissolution ([2]; M4N 50 mg/mL in 50% HP-β-CD/0.5% HPMC at 90° C.): did not dissolve
- solution upon cooling ([2]; M4N 50 mg/mL or 100 mg/mL in EC formulation, soluble at 90° C.): did not remain in solution upon cooling
- Dissolution After Rotation ([2]; MC (Low viscosity) 2% (w/v), M4N 1 mg/mL): N
- Dissolution After Heating ([2]; MC (Low viscosity) 2% (w/v), M4N 1 mg/mL, 90° C.): N at 90 °C
- Dissolution After Rotation ([2]; MC (Low viscosity) 2% (w/v), M4N 10 mg/mL): N
- Dissolution After Heating ([2]; MC (Low viscosity) 2% (w/v), M4N 10 mg/mL, 90° C.): N at 90 °C
